# Patent US7670806B2, “ADP-ribosyl acceptor hydrolase 3 (ARH3) polypeptides and methods of use” (The United States of America as represented by the …, priority 2005, dated 2010)
# Key:
# [1] = target: T1, ARH3 (Mus musculus, UniProt Q8CG72); experiment: Inhibition of ARH3-catalyzed hydrolysis of O-acetyl-ADP-ribose; assay type: biochemical
# T1 construct: The entire coding regions were ligated into pGEX-2T expression vector; GST (N); made in house; host or cells: E. coli BL21 Rosetta
# T1 sequence (Q8CG72 1-370): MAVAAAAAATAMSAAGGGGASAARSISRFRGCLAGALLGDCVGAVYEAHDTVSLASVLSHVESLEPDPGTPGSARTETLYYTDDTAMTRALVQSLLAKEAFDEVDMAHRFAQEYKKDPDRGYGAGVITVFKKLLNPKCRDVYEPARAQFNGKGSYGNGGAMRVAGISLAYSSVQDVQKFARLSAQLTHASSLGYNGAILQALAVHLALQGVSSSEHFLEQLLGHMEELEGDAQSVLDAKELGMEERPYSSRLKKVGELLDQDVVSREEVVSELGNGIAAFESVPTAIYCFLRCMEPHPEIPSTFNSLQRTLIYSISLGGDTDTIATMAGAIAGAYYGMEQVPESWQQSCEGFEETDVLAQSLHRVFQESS
# Method: FIG. 15A is a graph of the results from an assay with 2 pmol of ARH3 and the indicated amount of ADP-ribose (●) or β-NAD (∘) in 200 μl for 2 h at 30° C., as described in FIG. 11B. FIG. 15B is a graph of the inhibition of ARH3 hydrolysis by ADP-ribose data schematized for Lineweaver-Burk plot.
# Mouse ARH3 (2 pmol) and 2.5 μM O-acetyl-[^14C]ADP-ribose (5,000 cpm) in 200 μl of buffer containing 50 mM potassium phosphate (pH 7.0), 10 mM MgCl2 and 5 mM DTT were incubated for 2 h at 30° C., before separation of substrate and products using RP-HPLC as described below.
# Hydrolysis of O-acetyl-[^14C]ADP-ribose catalyzed by ARH3. Assays containing the indicated concentration of O-acetyl-[^14C]-ADP-ribose (0.1 to 2 nmol, 1,000 to 20,000 cpm) and 1.5 pmol of ARH3 in 200 μl of buffer (50 mM KPO4 (pH 7.0), 10 mM MgCl2, 5 mM DTT) were incubated at 30° C. for 20 min. Substrate and products were separated using RP-HPLC. Amounts of product were corrected for ADP-ribose produced in the absence of ARH3 before calculation of hydrolysis rates.
# ADP-ribose inhibited ARH3-catalyzed hydrolysis of 2.5 μM O-acetyl-ADP-ribose, ˜50% at a concentration of ca. 10 μM.
# [2] = Poly(ADP-ribose) hydrolysis (autoradiography, high resolution PAGE, HPLC); assay type: biochemical; conditions: [32P]poly(ADP-ribose) or poly(ADP-ribose)PARP; 37° C.; autoradiography / PAGE / HPLC
# Method: Poly(ADP-ribose) hydrolysis by autoradiography. [^32P]poly(ADP-ribose)PARP (500 ng of PARP with poly(ADP-ribose) was incubated (37° C., 2 h) with 2 μM ARH in 25 μl of 50 mM potassium phosphate buffer, pH 7.5, with or without 10 mM MgCl2 and/or 5 mM DTT. Reactions were stopped by adding 6 μl of 5× Laemmli buffer. Samples (20 μl) of proteins were separated by SDS-PAGE in 4-20% gels and transferred to nitrocellulose membranes that were exposed to X-ray film (Kodak) for 10 h.
# Hydrolysis of poly(ADP-ribose) by PARG and ARH3. Purified [^32P] poly(ADP-ribose) (5.5×10^5 cpm, ˜300 nM ADP-ribose) was incubated for the indicated time at 37° C. in 25 μl of 50 mM potassium phosphate, pH 7.5, containing 10 mM MgCl2 and 5 mM DTT with enzyme or other additions as indicated and terminated by addition of 25 μl of 2× electrophoresis buffer (Invitrogen). [^32P]AMP was generated by incubation (37° C., 3 h) of 10 μM [^32P] NAD (10 μCi/reaction) with pyrophosphatase (40 units/mg from SIGMA, 1 mg/ml) in 25 μl of 50 mM KPO4, pH 7.5, and 10 mM MgCl2. [^32P] […]
# Poly(ADP-ribose)PARP was used as substrate to assay potential poly(ADP-ribose) hydrolase activities of recombinant ARH1, 2 or 3. […] Fractions (1 ml) were collected for liquid scintillation counting to quantify [^14C]ADP-ribose, which was eluted in fractions from 34 min to 43 min. […]
# [3] = Rafty et al. (2002), cited from earlier work
compound,measurement,setting,value
Nc1ncnc2c1ncn2[C@@H]1O[C@H](COP(=O)(O)OP(=O)(O)OC[C@H]2OC(O)[C@H](O)[C@@H]2O)[C@@H](O)[C@H]1O (some centres unmarked) [ADP-ribose],Inhibition of ARH3-catalyzed hydrolysis of O-acetyl-ADP-ribose,"[1]; 2.5 μM O-acetyl-ADP-ribose, inhibitor at ca. 10 μM, 2 pmol ARH3, 2 h at 30° C.",~50%
same,Ki,"[1]; Lineweaver-Burk plot, substrate O-acetyl-ADP-ribose",8.6 µM
"ARH1: 39-kDa ADP-ribose-(arginine) protein hydrolase, recombinant mouse or human",Poly(ADP-ribose) hydrolysis (in words),[2],did not
murine Nudix: murine Nudix family ADP-ribose pyrophosphatase (Rafty et al. 2002),"kcat, O-acetyl-ADP-ribose",[3],0.78 ± 0.18 s⁻¹
same,Km,[3]; read-out: Km for O-acetyl-ADP-ribose,45 ± 0.9 µM
